19 compounds from US20080076666A1, “Formulation” (priority 2005, published 2008) can be followed below.

≈ marks a conversion by molar mass, not a printed value. Read-outs that look alike come from different tables or passages of the source.

The nature of data set [1]: Water solubility of UV protection dyes (Table 1). Conditions: for solubility: water.
Data set [2] in a line: Photo stabilisation study of COMPOUND (V) in gelatine microcapsules exposed to daylight (HPLC). In kind it is physicochemical. The protocol: The HPLC system was from Waters comprising of two 510 pumps, a 717 plus Autosampler, a System Interface Module, a Lambda-Max 480 detector and Millennium Chromatography Manager software. Chromatography was achieved on a Zorbax ODS 5 μm C18 analytical column of dimension 4.6×250 mm internal diameter maintained at 35° C. Mobile phases were unmodified water (Milli-Q grade) in reservoir A and unmodified acetonitrile in reservoir B. Linear gradient elution was used with 70 to 90% B over the first 10 minutes, then 100% B for 3 minutes and returning to 70% B over 4 minutes. Injection cycle time was 20 minutes with a flow rate of 2 ml/min. The samples were either dissolved in acetonitrile or diethyl ether and 10 μl volume injected on to the column which was maintained at 35° C. Prior to use, mobile phase were degassed under vacuum with sonication and continuously sparged with helium. The naphthoquinones were detected by measurement of UV absorbance at 269 nm.
A batch of gelatine microcapsules containing 300 mg of COMPOUND (V) in 15 ml of Exxsol® D100 was produced.
The capsule slurry was washed repeatedly with water to remove debris and filtered to obtain a wet cake. An aliquot of the wet cake (11.3 g) was made up to 50 ml and dyed brown with Chocolate Brown (500 mg, equivalent to 10 mg/ml solution). Aliquots (200 μl) of microcapsule slurry of brown and undyed capsules were applied to glass microscope slides in duplicate. The slurry from each batch was spread to form a monolayer of microcapsules on each slide. The slides were air dried in a dark at room temperature (≅21° C.) and exposed to daylight on a south-facing windowsill for various time periods. Two slides from each batch were analysed per time point post of exposure. Unexposed slides stored in the dark were used as time zero reference.
The contents of the capsules were extracted by rupturing the capsules, by rolling a glass rod on the slides, and washing both the rod and the slide with diethyl ether. The extracts were made up to 10 ml and assayed by HPLC.

With `CC1=NN(c2ccc(S(=O)(=O)[O-])cc2)C(=O)C1N=Nc1ccc(-c2ccc(N=Nc3ccc(OS(=O)(=O)c4ccc(C)cc4)cc3)c(S(=O)(=O)[O-])c2)cc1.[Na+].[Na+]` (centres unmarked) [Acid Orange 63], the “WATER SOLUBILITY” value in data set [1] stood at 50 mg/mL.
The same measure, in the same setting: then `Cc1nn(-c2ccccc2)c([O-])c1N=Nc1cc([N+](=O)[O-])cc(S(=O)(=O)[O-])c1[O-].[Cr+3].[Na+].[OH-]` [Acid Orange 74], with 20 mg/mL.
By solubility is commonly meant the dissolved amount per volume that the medium holds. High values mean much dissolved substance, low ones little dissolved substance. For `Cc1cc(N=Nc2ccc(C)c(N=Nc3cc(C)c(N)cc3N)c2)c(N)cc1N` [Bismark Brown R], the solubility in data set [1] came out at 70 mg/mL (≈ 180 mM).
For the compound `Nc1ccc(N=Nc2cccc(N=Nc3ccc(N)cc3N)c2)c(N)c1` [Bismark Brown Y], the “WATER SOLUBILITY” value in data set [1] was 50 mg/mL.
Compound `Cc1c(C2(c3cc(Br)c(O)c(Br)c3C)OS(=O)(=O)c3ccccc32)cc(Br)c(O)c1Br` [Bromocresol Green] had a solubility in data set [1] of 6 mg/mL (≈ 8.6 mM).
As for `CC(=O)OC1=C(C(C)CCC[Si](C)(C)C)C(=O)c2ccccc2C1=O` (centres unmarked) [COMPOUND (V)], the “amount of COMPOUND (V) in capsules, of the initial amount” value is given as around 80% in data set [2] (Chocolate Brown dyed impervious gelatine microcapsules, 88 hours exposure to daylight (8 hours daylight over 11 days)); 60% in data set [2] (undyed impervious gelatine microcapsules, 6 hours exposure to daylight); 23% in data set [2] (undyed impervious gelatine microcapsules, 16 hours exposure to daylight); 6% in data set [2] (undyed impervious gelatine microcapsules, 40 hours exposure to daylight (8 hours daylight over 5 days)). Further, the “period for which COMPOUND (V) was stabilised on exposure to daylight” value in data set [2] (within impervious gelatine microcapsules (Chocolate Brown dyed)) is reported as “in excess of eleven-days”.
Regarding `O=S1(=O)OC(c2ccc(O)c(Cl)c2)(c2ccc(O)c(Cl)c2)c2ccccc21` [Chlorophenol Red], in data set [1], the “WATER SOLUBILITY” value came to 60 mg/mL.
Take `Nc1c(/N=N/c2ccc(-c3ccc(/N=N/c4cc(S(=O)(=O)O)c5ccccc5c4N)cc3)cc2)cc(S(=O)(=O)O)c2ccccc12` [Congo Red]: the concentration in solution in data set [1] (solubility) came to 40 mg/mL (≈ 61.3 mM).
For `O=S(=O)([O-])c1ccc2c(N=Nc3ccccc3)c(O)ccc2c1.[Na+]` [Crocein Orange G], in data set [1], the “WATER SOLUBILITY” value was found to be 40 mg/mL.
On the same count and under the same terms, then `CC(=O)Nc1ccc2nc3c4ccccc4c(=N)cc-3oc2c1.Cl` [Darrow Red], with 1 mg/mL; and `CCN(CC)c1ccc(N=Nc2ccc(S(=O)(=O)[O-])cc2)cc1.[K+]` [Ethyl Orange], with 100 mg/mL; and `CCN(CC)c1ccc(N=Nc2ccccc2C(=O)O)cc1` [Ethyl Red], with 3 mg/mL.
In data set [1], `CN(C)c1ccc(/N=N/c2ccccc2C(=O)O)cc1` [Methyl Red] returned a solubility of 2 mg/mL (≈ 7.43 mM).
In the case of `Nc1cc(N)c(N=Nc2cccc3c(S(=O)(=O)O)cccc23)cc1N=Nc1cc([N+](=O)[O-])ccc1O.[Na]` [Mordant Brown 1], the “WATER SOLUBILITY” value in data set [1] came to 60 mg/mL.
`Cc1cc(N=Nc2cc([N+](=O)[O-])cc([N+](=O)[O-])c2O)c(N)cc1N` [Mordant Brown 4]: the “WATER SOLUBILITY” value in data set [1] (hot water (remark)) is 60 mg/mL.
For the compound `Nc1cc(N)c(S(=O)(=O)[O-])cc1N=Nc1cc([N+](=O)[O-])ccc1O.[Na+]` [Mordant Brown 33], the “WATER SOLUBILITY” value in data set [1] came out at 20 mg/mL.
The same measure, in the same setting: then `Nc1cc(N)c(N=Nc2cc([N+](=O)[O-])cc([N+](=O)[O-])c2O)cc1Cl` [Mordant Brown 48], with 40 mg/mL; and `Cc1cc(O)ccc1C1(c2ccc(O)cc2C)OS(=O)(=O)c2ccccc21` [m-Cresol Purple], with 2 mg/mL.
The same measure, in the same setting: for Acid Orange 51 the value was 30 mg/mL.
